Source: BigSolDB 2.1

N#CCC(N)=O
solubility (mole fraction)
Details | 273.15 K | 278.15 K | 283.15 K | 288.15 K | 293.15 K | 298.15 K | 303.15 K | 308.15 K | 313.15 K | 318.15 K
in 1,4-dioxane | – | – | – | 0.0127 | 0.0155 | 0.0186 | 0.0226 | 0.0278 | 0.0342 | 0.0407
in DMF | 0.254 | 0.262 | 0.271 | 0.283 | 0.295 | 0.309 | 0.325 | 0.343 | 0.36 | 0.382
in THF | 0.00988 | 0.0112 | 0.0128 | 0.0145 | 0.0164 | 0.0187 | 0.0209 | 0.0236 | 0.0268 | 0.0301
in acetone | 0.0248 | 0.0286 | 0.0335 | 0.039 | 0.0453 | 0.0527 | 0.0612 | 0.0712 | 0.0833 | 0.0956
in acetonitrile | 0.0154 | 0.0187 | 0.0232 | 0.0272 | 0.0329 | 0.0389 | 0.0469 | 0.0553 | 0.0671 | 0.0795
in chloroform | 0.000389 | 0.000465 | 0.000562 | 0.000678 | 0.000821 | 0.000985 | 0.00119 | 0.00143 | 0.00173 | 0.00208
in dichloromethane | 0.000321 | 0.000388 | 0.000471 | 0.000559 | 0.000668 | 0.000792 | 0.000931 | 0.00112 | – | –
in ethanol | 0.00455 | 0.00558 | 0.00681 | 0.0087 | 0.0105 | 0.0129 | 0.0157 | 0.0188 | 0.0229 | 0.0277
in ethyl acetate | 0.0043 | 0.00509 | 0.00602 | 0.00694 | 0.00829 | 0.00951 | 0.011 | 0.0128 | 0.0149 | 0.017
in methanol | 0.0126 | 0.0156 | 0.0186 | 0.0227 | 0.0273 | 0.0332 | 0.04 | 0.0482 | 0.0558 | 0.0674
in methyl acetate | 0.0115 | 0.0137 | 0.0163 | 0.0195 | 0.0228 | 0.0263 | 0.0307 | 0.0355 | 0.0408 | 0.0467
in n-butanol | 0.00201 | 0.00246 | 0.00298 | 0.00377 | 0.00456 | 0.0055 | 0.00667 | 0.00797 | 0.00982 | 0.0119
in n-propanol | 0.0022 | 0.00274 | 0.00355 | 0.00461 | 0.00591 | 0.00755 | 0.00935 | 0.0117 | 0.0147 | 0.0182
in water | – | 0.0136 | 0.0179 | 0.0233 | 0.0313 | 0.0405 | 0.0519 | 0.0674 | 0.0887 | 0.114
